Measured values taken from PubChem BioAssay (NCI).
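All cell lines were grown in 96-well plates and treated with compound for 48 hours. Here, GI50 denotes the concentration required for 50% inhibition of growth. TGI is the concentration that stops growth completely.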

Experiments:
Assay in all cases: NCI-60 cell line screen, 48 h
[1] = system: U251 CNS
[2] = system: HL-60(TB) leukemia
[3] = system: HCC-2998 colon
[4] = system: KM12 colon
[5] = system: A549 NSCLC
[6] = system: HOP-62 NSCLC
[7] = system: DU-145 prostate
[8] = system: RXF 393 renal
[9] = system: SN12C renal
[10] = system: M14 melanoma
[11] = system: SNB-19 CNS
[12] = system: SK-MEL-2 melanoma
[13] = system: HS 578T breast
[14] = system: SK-OV-3 ovarian
[15] = system: ACHN renal
[16] = system: SNB-75 CNS
[17] = system: PC-3 prostate
[18] = system: HOP-92 NSCLC
[19] = system: NCI-H226 lung
[20] = system: TK-10 renal
[21] = system: IGROV1 ovarian
[22] = system: MDA-MB-231 breast
[23] = system: A498 renal
[24] = system: NCI-H460 lung
[25] = system: COLO 205 colon
[26] = system: OVCAR-5 ovarian
[27] = system: SK-MEL-5 melanoma
[28] = system: MCF7 breast
[29] = system: SF-295 CNS
[30] = system: 786-0 renal
[31] = system: MOLT-4 leukemia
[32] = system: MDA-MB-435
[33] = system: BT-549 breast
[34] = system: OVCAR-4 ovarian
[35] = system: UACC-62 melanoma
[36] = system: SK-MEL-28 melanoma
[37] = system: MALME-3M melanoma
[38] = system: EKVX NSCLC
[39] = system: UACC-257 melanoma
[40] = system: K-562 leukemia
[41] = system: UO-31 renal
[42] = system: SF-539 CNS
[43] = system: OVCAR-8 ovarian
[44] = system: HT29 colon
[45] = system: HCT-116 colon
[46] = system: NCI-H522 lung
[47] = system: HCT-15 colon
[48] = system: SR leukemia
[49] = system: SF-268 CNS
[50] = system: NCI-H23 lung
[51] = system: CCRF-CEM leukemia
[52] = system: NCI/ADR-RES ovarian
[53] = system: CAKI-1 renal
[54] = system: SW-620 colon
[55] = system: T-47D breast

NS(=O)(=O)c1ccc(Nc2nc(N/N=C/c3ccc(C(F)(F)F)cc3)nc(Nc3ccccc3)n2)cc1
GI50 [1]: 2.68 µM | TGI [1]: 11.3 µM | GI50 [2]: 3.59 µM | TGI [2]: > 100 µM | GI50 [3]: 2.97 µM | TGI [3]: 9.04 µM | GI50 [4]: 2.38 µM | TGI [4]: 5.61 µM | GI50 [5]: 3.11 µM | TGI [5]: 11.6 µM | GI50 [6]: 2.15 µM | TGI [6]: 5.78 µM | GI50 [7]: 3.31 µM | TGI [7]: 11 µM | GI50 [8]: 1.82 µM | TGI [8]: 4.65 µM | GI50 [9]: 3 µM | TGI [9]: 10.2 µM | GI50 [10]: 2.51 µM | TGI [10]: 6.45 µM | GI50 [11]: 3.46 µM | TGI [11]: 11.4 µM | GI50 [12]: 2.17 µM | TGI [12]: 5 µM | GI50 [13]: 3.07 µM | TGI [13]: > 100 µM | GI50 [14]: 3.66 µM | TGI [14]: 33.8 µM | GI50 [15]: 2.68 µM | TGI [15]: 7.59 µM | GI50 [16]: 2.05 µM | TGI [16]: 6.24 µM | GI50 [17]: 2.8 µM | TGI [17]: 9.72 µM | GI50 [18]: 2.38 µM | TGI [18]: 6.31 µM | GI50 [19]: 2.45 µM | TGI [19]: 6.22 µM | GI50 [20]: 3.45 µM | TGI [20]: 10.5 µM | GI50 [21]: 2.64 µM | TGI [21]: 7.42 µM | GI50 [22]: 2.31 µM | TGI [22]: 5.52 µM | GI50 [23]: 2.61 µM | TGI [23]: 9.26 µM | GI50 [24]: 3.02 µM | TGI [24]: 8.89 µM | GI50 [25]: 1.86 µM | TGI [25]: 4.37 µM | GI50 [26]: 2.96 µM | TGI [26]: 11 µM | GI50 [27]: 1.74 µM | TGI [27]: 3.18 µM | GI50 [28]: 2.18 µM | TGI [28]: 7.37 µM | GI50 [29]: 1.92 µM | TGI [29]: 4.07 µM | GI50 [30]: 2.22 µM | TGI [30]: 5.2 µM | GI50 [31]: 3.06 µM | TGI [31]: 14.4 µM | GI50 [32]: 2.07 µM | TGI [32]: 4.44 µM | GI50 [33]: 2.79 µM | TGI [33]: 9.48 µM | GI50 [34]: 3.69 µM | TGI [34]: 64.8 µM | GI50 [35]: 2.35 µM | TGI [35]: 5.33 µM | GI50 [36]: 2.44 µM | TGI [36]: 7.37 µM | GI50 [37]: 1.87 µM | TGI [37]: 3.9 µM | GI50 [38]: 2.62 µM | TGI [38]: 8.51 µM | GI50 [39]: 2.42 µM | TGI [39]: 7.26 µM | GI50 [40]: 3.51 µM | TGI [40]: 12.8 µM | GI50 [41]: 1.88 µM | TGI [41]: 4.64 µM | GI50 [42]: 1.86 µM | TGI [42]: 4.23 µM | GI50 [43]: 2.82 µM | TGI [43]: 10.4 µM | GI50 [44]: 2.44 µM | TGI [44]: 5.78 µM | GI50 [45]: 3.1 µM | TGI [45]: 10.3 µM | GI50 [46]: 2.66 µM | TGI [46]: 7.77 µM | GI50 [47]: 2.32 µM | TGI [47]: 6.48 µM | GI50 [48]: 3.07 µM | TGI [48]: 15.3 µM | GI50 [49]: 3.51 µM | TGI [49]: 14 µM | GI50 [50]: 1.95 µM | TGI [50]: 4.25 µM | GI50 [51]: 3 µM | TGI [51]: > 100 µM | GI50 [52]: 12.3 µM | TGI [52]: 75.7 µM | GI50 [53]: 3.05 µM | TGI [53]: 9.93 µM | GI50 [54]: 3.3 µM | TGI [54]: 11.1 µM | GI50 [55]: 2.48 µM | TGI [55]: 9.78 µM
